According to the supplement of paper PMC12463676, “Small-molecule dissolution of stress granules by redox modulation benefits ALS models” (Nature Chemical Biology, 2025):

Legend:
lipoamide = compound: NC(=O)CCCCC1CCSS1 [lipoamide]; assay: thermal stability z-score vs DMSO; higher = more thermally stabilized by treatment; conditions: HeLa, lipoamide concentration 100 µM
Method: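 Cellular thermal proteome profiling in HeLa cells. Cells were treated with 100 µM lipoamide for 1 h, with or without 1 mM arsenate for a further 1 h, then heated to ten temperatures (37-66.3 °C), and soluble protein was quantified by TMT mass spectrometry relative to 0.1% DMSO controls. The thermal stability score (sum of log2 fold changes minus the abundance score) was transformed to a z-score; mean of n = 3 experiments.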

potassium arsenate = compound: O=[As]([O-])(O)O.[K+] [potassium arsenate]; assay: as above; conditions: HeLa; arsenate concentration 1 mM
Method: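 Cellular thermal proteome profiling in HeLa cells treated with 1 mM arsenate for 1 h (DMSO pretreatment), heated to ten temperatures (37-66.3 °C). Soluble protein was quantified by TMT mass spectrometry relative to DMSO controls; the thermal stability score was transformed to a z-score; mean of n = 3 experiments.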

[1] = arsenate co-treatment: 1 mM arsenate 1 h
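Further: each temperature applied for 3 min, abundance score taken as mean log2 fold change at the two lowest temperatures, z-score obtained by mean subtraction and division by SD.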

Sequence of UniProt Q5TEU4 (Q5TEU4 whole entry): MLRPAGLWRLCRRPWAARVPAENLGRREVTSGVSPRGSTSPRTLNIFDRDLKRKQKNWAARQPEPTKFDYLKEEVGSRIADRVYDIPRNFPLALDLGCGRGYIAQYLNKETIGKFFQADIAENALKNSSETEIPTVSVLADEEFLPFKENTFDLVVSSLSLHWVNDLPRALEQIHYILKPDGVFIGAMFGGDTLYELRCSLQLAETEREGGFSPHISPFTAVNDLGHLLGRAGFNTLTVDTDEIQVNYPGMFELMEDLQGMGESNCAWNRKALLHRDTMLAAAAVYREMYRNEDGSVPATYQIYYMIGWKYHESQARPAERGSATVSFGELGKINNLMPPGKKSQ
Sequence of UniProt O14777 (O14777 whole entry): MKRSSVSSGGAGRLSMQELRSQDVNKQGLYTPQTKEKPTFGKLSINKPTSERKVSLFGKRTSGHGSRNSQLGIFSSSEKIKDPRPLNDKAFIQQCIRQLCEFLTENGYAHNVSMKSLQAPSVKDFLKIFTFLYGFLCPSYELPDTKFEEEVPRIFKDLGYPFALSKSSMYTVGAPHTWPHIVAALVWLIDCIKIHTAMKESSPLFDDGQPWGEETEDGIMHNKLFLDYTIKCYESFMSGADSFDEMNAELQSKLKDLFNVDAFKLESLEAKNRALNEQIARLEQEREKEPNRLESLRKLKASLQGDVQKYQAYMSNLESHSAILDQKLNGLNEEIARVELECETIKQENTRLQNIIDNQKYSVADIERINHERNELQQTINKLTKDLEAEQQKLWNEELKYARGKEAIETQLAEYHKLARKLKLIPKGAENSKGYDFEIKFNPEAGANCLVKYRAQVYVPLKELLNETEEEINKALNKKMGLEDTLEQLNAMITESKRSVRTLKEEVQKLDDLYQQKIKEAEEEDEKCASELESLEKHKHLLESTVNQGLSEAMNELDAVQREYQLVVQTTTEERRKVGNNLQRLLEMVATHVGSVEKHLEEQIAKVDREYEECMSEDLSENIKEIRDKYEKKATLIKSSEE
Sequence of UniProt Q13772 (Q13772 whole entry): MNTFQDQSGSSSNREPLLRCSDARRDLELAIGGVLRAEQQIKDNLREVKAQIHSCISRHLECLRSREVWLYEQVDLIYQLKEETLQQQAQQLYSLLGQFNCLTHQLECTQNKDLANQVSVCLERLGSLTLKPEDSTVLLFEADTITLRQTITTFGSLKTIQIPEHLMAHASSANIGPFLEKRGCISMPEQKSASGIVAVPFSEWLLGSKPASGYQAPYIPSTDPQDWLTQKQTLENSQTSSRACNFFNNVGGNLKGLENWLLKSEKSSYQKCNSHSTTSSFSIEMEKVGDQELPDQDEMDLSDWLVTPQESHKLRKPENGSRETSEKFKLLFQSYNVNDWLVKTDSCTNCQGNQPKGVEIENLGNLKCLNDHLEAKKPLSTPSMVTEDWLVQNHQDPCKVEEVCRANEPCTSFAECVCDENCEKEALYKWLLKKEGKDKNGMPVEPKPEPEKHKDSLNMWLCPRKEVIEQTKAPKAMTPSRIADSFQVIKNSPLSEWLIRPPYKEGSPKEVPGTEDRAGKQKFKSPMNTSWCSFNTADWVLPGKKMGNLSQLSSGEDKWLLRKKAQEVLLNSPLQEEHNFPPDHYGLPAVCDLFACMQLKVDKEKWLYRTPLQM
Sequence of UniProt Q9Y618 (Q9Y618 whole entry): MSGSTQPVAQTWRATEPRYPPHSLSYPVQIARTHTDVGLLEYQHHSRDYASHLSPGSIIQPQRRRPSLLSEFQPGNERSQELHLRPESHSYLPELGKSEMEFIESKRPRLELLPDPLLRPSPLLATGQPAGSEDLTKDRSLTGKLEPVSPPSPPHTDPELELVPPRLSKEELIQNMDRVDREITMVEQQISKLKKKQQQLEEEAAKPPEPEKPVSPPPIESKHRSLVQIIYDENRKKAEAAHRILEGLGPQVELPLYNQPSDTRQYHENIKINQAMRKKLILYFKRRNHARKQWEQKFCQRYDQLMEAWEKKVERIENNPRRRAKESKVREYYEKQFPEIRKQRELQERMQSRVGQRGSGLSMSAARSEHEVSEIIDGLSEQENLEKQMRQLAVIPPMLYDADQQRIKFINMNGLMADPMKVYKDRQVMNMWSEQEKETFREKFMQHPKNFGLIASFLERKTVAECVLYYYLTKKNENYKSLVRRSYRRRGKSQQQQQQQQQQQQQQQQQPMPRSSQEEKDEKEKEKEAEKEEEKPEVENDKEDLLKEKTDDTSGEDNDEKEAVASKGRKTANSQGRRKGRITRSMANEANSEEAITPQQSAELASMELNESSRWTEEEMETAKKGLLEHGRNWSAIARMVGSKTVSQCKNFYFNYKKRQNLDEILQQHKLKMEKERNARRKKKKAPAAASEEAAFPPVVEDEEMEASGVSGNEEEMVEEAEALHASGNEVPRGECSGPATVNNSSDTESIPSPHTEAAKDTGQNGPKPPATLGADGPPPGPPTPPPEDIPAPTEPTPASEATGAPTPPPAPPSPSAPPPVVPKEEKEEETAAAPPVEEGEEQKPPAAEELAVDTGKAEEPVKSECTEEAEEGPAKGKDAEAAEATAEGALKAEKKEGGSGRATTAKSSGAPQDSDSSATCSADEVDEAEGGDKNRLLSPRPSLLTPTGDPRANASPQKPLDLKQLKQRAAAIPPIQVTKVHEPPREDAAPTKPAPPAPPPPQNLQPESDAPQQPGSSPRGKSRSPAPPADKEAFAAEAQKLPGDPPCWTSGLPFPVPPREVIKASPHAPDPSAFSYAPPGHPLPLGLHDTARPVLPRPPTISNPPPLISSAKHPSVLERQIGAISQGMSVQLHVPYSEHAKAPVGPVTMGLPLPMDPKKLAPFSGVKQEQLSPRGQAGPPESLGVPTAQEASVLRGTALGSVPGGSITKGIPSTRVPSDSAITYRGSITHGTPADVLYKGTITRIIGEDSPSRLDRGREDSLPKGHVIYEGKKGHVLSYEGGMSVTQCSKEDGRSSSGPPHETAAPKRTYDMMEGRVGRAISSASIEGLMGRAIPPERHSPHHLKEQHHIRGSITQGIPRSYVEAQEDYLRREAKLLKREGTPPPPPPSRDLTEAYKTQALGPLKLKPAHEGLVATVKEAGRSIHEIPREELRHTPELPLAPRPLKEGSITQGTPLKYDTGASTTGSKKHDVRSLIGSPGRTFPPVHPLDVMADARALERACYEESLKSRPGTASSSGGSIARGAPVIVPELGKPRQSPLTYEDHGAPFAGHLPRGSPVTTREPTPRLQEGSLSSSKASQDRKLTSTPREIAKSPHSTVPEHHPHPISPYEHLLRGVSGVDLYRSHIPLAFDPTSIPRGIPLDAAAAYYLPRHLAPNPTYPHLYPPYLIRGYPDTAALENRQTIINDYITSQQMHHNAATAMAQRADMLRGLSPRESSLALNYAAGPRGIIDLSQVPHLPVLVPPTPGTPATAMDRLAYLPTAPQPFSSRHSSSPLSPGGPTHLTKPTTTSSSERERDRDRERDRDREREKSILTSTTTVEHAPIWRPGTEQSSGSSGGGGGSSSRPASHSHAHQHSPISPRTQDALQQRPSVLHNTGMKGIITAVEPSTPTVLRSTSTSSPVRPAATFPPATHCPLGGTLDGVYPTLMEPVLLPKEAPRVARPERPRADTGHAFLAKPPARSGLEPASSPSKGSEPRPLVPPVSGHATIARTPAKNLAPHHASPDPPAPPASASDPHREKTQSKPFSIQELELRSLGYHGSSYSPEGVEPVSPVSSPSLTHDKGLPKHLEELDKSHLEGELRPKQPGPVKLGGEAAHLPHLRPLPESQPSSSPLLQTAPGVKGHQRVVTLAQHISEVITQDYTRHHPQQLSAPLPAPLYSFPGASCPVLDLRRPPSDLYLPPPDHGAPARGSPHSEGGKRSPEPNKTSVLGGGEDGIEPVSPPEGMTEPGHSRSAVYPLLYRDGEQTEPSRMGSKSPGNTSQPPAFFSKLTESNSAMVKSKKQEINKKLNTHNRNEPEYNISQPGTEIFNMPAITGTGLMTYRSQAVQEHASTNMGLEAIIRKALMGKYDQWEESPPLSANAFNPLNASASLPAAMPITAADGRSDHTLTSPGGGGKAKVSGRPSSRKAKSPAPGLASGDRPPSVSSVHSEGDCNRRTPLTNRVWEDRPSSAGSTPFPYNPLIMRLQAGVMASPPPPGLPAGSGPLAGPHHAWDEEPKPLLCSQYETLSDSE
Sequence of UniProt Q9BU61 (Q9BU61 whole entry): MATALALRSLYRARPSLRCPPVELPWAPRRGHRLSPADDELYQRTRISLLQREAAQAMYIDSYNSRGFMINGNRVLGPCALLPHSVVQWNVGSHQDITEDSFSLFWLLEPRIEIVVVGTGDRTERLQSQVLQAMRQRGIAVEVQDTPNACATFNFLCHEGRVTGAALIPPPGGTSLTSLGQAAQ
Sequence of UniProt P56556 (P56556 whole entry): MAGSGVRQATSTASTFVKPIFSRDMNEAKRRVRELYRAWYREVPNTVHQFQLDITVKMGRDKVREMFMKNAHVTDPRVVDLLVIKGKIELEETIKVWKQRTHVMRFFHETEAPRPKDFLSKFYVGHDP
Sequence of UniProt Q969V3 (Q969V3 whole entry): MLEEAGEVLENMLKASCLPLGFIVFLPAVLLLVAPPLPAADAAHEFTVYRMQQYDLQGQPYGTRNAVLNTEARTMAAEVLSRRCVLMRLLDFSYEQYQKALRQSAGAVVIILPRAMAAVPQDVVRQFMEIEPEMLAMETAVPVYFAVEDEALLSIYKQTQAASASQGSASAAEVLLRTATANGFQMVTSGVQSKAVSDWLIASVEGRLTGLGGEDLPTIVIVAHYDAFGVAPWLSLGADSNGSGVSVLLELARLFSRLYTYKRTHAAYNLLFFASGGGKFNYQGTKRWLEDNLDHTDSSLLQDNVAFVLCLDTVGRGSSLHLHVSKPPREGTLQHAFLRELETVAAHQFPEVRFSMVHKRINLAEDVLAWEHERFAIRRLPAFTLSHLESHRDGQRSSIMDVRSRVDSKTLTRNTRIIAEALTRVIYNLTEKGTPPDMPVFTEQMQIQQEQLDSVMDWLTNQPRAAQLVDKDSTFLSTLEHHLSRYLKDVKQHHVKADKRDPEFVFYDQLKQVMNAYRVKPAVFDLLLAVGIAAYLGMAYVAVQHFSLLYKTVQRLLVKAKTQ

Target | thermal stability z-score (lipoamide; [1]) | thermal stability z-score (lipoamide; arsenate co-treatment: none) | thermal stability z-score (potassium arsenate)
NCAPD2 (UniProt Q15021) | -0.565 | -0.251 | 0.369
NCAPD3 (UniProt P42695) | 0.394 | 0.105 | 0.161
NCAPG2 (UniProt Q86XI2) | -0.00836 | -0.0717 | -0.267
NCAPG (UniProt Q9BPX3) | -0.382 | 0.295 | 0.883
NCAPH2 (UniProt Q6IBW4) | -0.0183 | 0.00929 | -0.299
NCAPH (UniProt Q15003) | -1.04 | -0.316 | 0.387
NCBP1 (UniProt Q09161) | 0.353 | 0.393 | -0.0646
NCBP2 (UniProt P52298) | 0.782 | 0.577 | -0.0118
NCDN (UniProt Q9UBB6) | 0.164 | -0.266 | 0.288
NCEH1 (UniProt Q6PIU2) | -0.5 | -0.83 | -0.34
NCK1 (UniProt P16333) | -0.705 | -0.905 | -0.0139
NCKAP1 (UniProt Q9Y2A7) | 0.0716 | 0.602 | -0.938
NCKAP5L (UniProt Q9HCH0) | -0.000592 | 0.244 | 0.264
NCKIPSD (UniProt Q9NZQ3) | 0.127 | 0.0916 | 0.255
NCL (UniProt P19338) | 0.724 | 0.77 | -0.611
NCLN (UniProt Q969V3) | -3.4 | -2.85 | 0.537
NCOA2 (UniProt Q15596) | -0.239 | -0.0592 | -0.284
NCOA3 (UniProt Q9Y6Q9) | -0.0145 | 0.0505 | -0.26
NCOA4 (UniProt Q13772) | -0.252 | 0.00243 | -0.116
NCOA5 (UniProt Q9HCD5) | 1.91 | 0.857 | 1.05
NCOA7 (UniProt Q8NI08) | -0.676 | -0.721 | 0.0655
NCOR1 (UniProt O75376) | -0.0471 | -0.0243 | -0.0899
NCOR2 (UniProt Q9Y618) | 0.182 | 0.227 | 0.138
NCS1 (UniProt P62166) | -0.202 | -0.195 | -0.124
NCSTN (UniProt Q92542) | -0.537 | -0.624 | -0.207
NDC1 (UniProt Q9BTX1) | 0.0748 | 0.0634 | 0.177
NDC80 (UniProt O14777) | -0.361 | 0.254 | 1.71
NDE1 (UniProt Q9NXR1) | 0.584 | 0.266 | 0.0354

Target | thermal stability z-score (lipoamide; [1]) | thermal stability z-score (lipoamide; arsenate co-treatment: none) | thermal stability z-score (potassium arsenate)
NDFIP1 (UniProt Q9BT67) | 1.07 | 0.0758 | 1.41
NDOR1 (UniProt Q9UHB4) | 0.000709 | 0.487 | 1.08
NDRG1 (UniProt Q92597) | -0.311 | -0.62 | -1.31
NDRG3 (UniProt Q9UGV2) | -0.101 | -0.269 | -1.65
NDUFA2 (UniProt O43678) | -0.29 | -0.00199 | 0.396
NDUFA4 (UniProt O00483) | 0.551 | 0.887 | 0.532
NDUFA5 (UniProt Q16718) | -0.0074 | -0.146 | 0.101
NDUFA6 (UniProt P56556) | -0.164 | -0.00891 | 0.505
NDUFA7 (UniProt O95182) | 0.276 | 0.141 | 0.128
NDUFA8 (UniProt P51970) | -0.418 | -0.772 | 0.0194
NDUFA9 (UniProt Q16795) | 0.188 | 0.112 | 0.475
NDUFA10 (UniProt O95299) | -0.327 | -0.199 | -0.167
NDUFA11 (UniProt Q86Y39) | 0.521 | -0.0102 | 0.571
NDUFA12 (UniProt Q9UI09) | -0.0618 | 0.06 | 0.611
NDUFAB1 (UniProt O14561) | 1.77 | -0.297 | 0.86
NDUFAF1 (UniProt Q9Y375) | -0.593 | -0.335 | -0.0374
NDUFAF2 (UniProt Q8N183) | 0.429 | 0.317 | 0.094
NDUFAF3 (UniProt Q9BU61) | -0.122 | -0.105 | -0.147
NDUFAF4 (UniProt Q9P032) | -0.153 | 0.199 | 0.182
NDUFAF5 (UniProt Q5TEU4) | -0.066 | -0.112 | 0.155
NDUFAF6 (UniProt Q330K2) | 0.234 | 0.0618 | 0.0349
NDUFAF7 (UniProt Q7L592) | -0.486 | -0.171 | 0.288
NDUFB3 (UniProt O43676) | 0.00119 | -0.236 | 0.36
NDUFB4 (UniProt O95168) | 0.137 | 0.173 | 0.489
NDUFB5 (UniProt O43674) | -0.958 | -0.151 | 0.226
NDUFB6 (UniProt O95139) | 0.071 | 0.306 | 0.873
NDUFB7 (UniProt P17568) | -0.619 | -0.28 | -0.462
